Experimental data taken from PubChem BioAssay AID588610 (The Scripps Research Institute Molecular Screening Center, 2011).

Target: Epidermal growth factor receptor (Homo sapiens) (UniProt P00533)
Assay: EGFR protein level change in DLD-1 cells, late-stage follow-up, counter-screen for KLF5 inhibitor project, DLD1 cells, chemiluminescent western blot (AID 588610)
Settings: 24 h, at 10 µM; for inhibition of EGFR protein level: stronger effect = higher value; for fold change: measured here: EGFR band fold change vs DMSO

SMILES	inhibition of EGFR protein level	fold change
CN(C(=O)CNC(=O)/C=C/c1cccc(Cl)c1)C1CCS(=O)(=O)CC1	-478%	5.13
CN(C(=O)COC(=O)/C=C/c1cccc([N+](=O)[O-])c1)C1CCS(=O)(=O)C1 (stereo not given)	-314%	3.54
CN(C(=O)CNC(=O)/C=C/c1cccc(Cl)c1)C1CCS(=O)(=O)C1 (stereo not given)		5.24
